Source: patent US8835644B2, “Broad spectrum benzothiophene-nitrothiazolide and other antimicrobials” (University of Virginia Patent Foundation, priority 2009, dated 2014)
Values after ≈ are worked out from the molar mass of the structure shown. Where two headings read alike, the source gives them in different places.

Experiments:
E. coli biofilm = E. coli biofilm assay (activity tables); type: cell-based, Escherichia coli; conditions: biofilm; read-out: MIC (μM) E. coli Biofilm
Protocol: A quantitative biofilm assay was used to determine the effect of NTZ on biofilm formation (41). Strain 042 was grown overnight at 37° C. with shaking and inoculated 1:100 in 200 μl culture medium in Costar 96-well, flat-bottom, polystyrene microtiter plates containing appropriate concentrations of NTZ. Plates were incubated statically at 37° C. in a humidified incubator. At 24 h, bacterial growth was measured by either transferring […] aliquots to another microtiter plate to determine turbidity or by diluting 100 μl aliquots 1:100 in 9.9 ml PBS for quantitative plate counts on LB medium. Bacterial counts in triplicate are reported as cfu/ml. Biofilm was visualized following staining with 0.5% crystal violet (41) and the absorbance was read at 570 nm using a microplate reader (Molecular Dynamics). All experiments were in triplicate and reported as mean and standard deviation.
(§1) A standard broth dilution protocol was used in 96 well microplates containing a standard dilution of the microorganism to be tested in 100 microliters of the appropriate medium. Appropriate medium: E. coli, LB medium; Staphylococcus strains, Trypticase Soy; and for H. pylori and C. jejuni, Brain Heart Infusion. The compounds to be tested were set at 32 μg/ml in 200 microliters in well one and then serially diluted to provide a range from 32 to 0.06. The wells were scored visually at 24 h. The well where there was no growth was recorded as the MIC. Clostridium difficile was tested by agar diffusion and disk diffusion (Kirby Bower) methods under anaerobic conditions on Wilkins Chalgrin agar. In these assays, zone of inhibited growth was measured and compared by relative ratio to the zone recorded for NTZ.
(§2) Representative compounds of the invention were tested in a series of assays against a series of organisms as described above. […] The organisms tested include, C. difficile, H. pylori, C. jejuni, MRSA, S. epidermidis, and E. coli. S. epidermidis and E. coli were tested in the plank and biofilm assay. A disk diffusion assay was also used for C. difficile. Direct PFOR enzyme assays were also performed. All analogues and derivatives were not tested on every organism in every type of assay (the “-” in each table means that it was not tested).

S. epidermidis = experiment: MIC testing by broth dilution, S. epidermidis plank; type: cell-based, Staphylococcus epidermidis
Protocol: as §1, §2

H. pylori = experiment: MIC testing by broth dilution, H. pylori; type: cell-based, Helicobacter pylori
Protocol: as §1, §2

C. jejuni = experiment: MIC testing by broth dilution, C. jejuni; type: cell-based, Campylobacter jejuni
Protocol: as §1, §2

E. coli = experiment: MIC testing by broth dilution, E. coli plank; type: cell-based, Escherichia coli
Protocol: as §1, §2

MRSA = experiment: MIC testing by broth dilution, MRSA; type: cell-based, Staphylococcus aureus
Protocol: as §1, §2

[1] = broth dilution, Trypticase Soy, 24 h, read-out: MIC (μM) S. epidermidis Plank
[2] = broth dilution, Brain Heart Infusion, 24 h, read-out: MIC (μM) H. pylori
[3] = broth dilution, Brain Heart Infusion, 24 h, read-out: MIC (μM) C. jejuni
[4] = broth dilution, LB medium, 24 h, read-out: MIC (μM) E. coli Plank
[5] = broth dilution, Trypticase Soy, 24 h, read-out: MIC (μM) MRSA
[6] = planktonic, Furan analogues table, read-out: MIC S. epidermidis Plank
[7] = Furan analogues table, read-out: MIC H. pylori
[8] = Furan analogues table, read-out: MIC C. jejuni
[9] = planktonic, Furan analogues table, read-out: MIC E. coli Plank
[10] = Furan analogues table, read-out: MIC MRSA
[11] = planktonic, Thiophene analogues table, read-out: MIC S. epidermidis Plank
[12] = Thiophene analogues table, read-out: MIC H. pylori
[13] = Thiophene analogues table, read-out: MIC C. jejuni
[14] = planktonic, Thiophene analogues table, read-out: MIC E. coli Plank
[15] = Thiophene analogues table, read-out: MIC MRSA

`O=C(Nc1ncc([N+](=O)[O-])s1)c1ccc(C(F)(F)F)cc1[N+](=O)[O-]` [VPC16b1016] gave an MIC (E. coli biofilm) of 88.3 µM (≈ 32 µg/mL), an MIC (S. epidermidis; [1]) of 88.3 µM (≈ 32 µg/mL) and an MIC (H. pylori; [2]) of 8.3 µM (≈ 3.01 µg/mL). The MIC (C. jejuni; [3]) was 88.3 µM (≈ 32 µg/mL), the MIC (E. coli; [4]) was 88.3 µM (≈ 32 µg/mL) and the MIC (MRSA; [5]) was 88.3 µM (≈ 32 µg/mL).
`O=C(Nc1ncc([N+](=O)[O-])s1)c1ccc(F)c([N+](=O)[O-])c1` [VPC16b1017] showed an MIC (E. coli biofilm) of 102.5 µM (≈ 32 µg/mL), an MIC (S. epidermidis; [1]) of 51.2 µM (≈ 16 µg/mL) and an MIC (H. pylori; [2]) of 1.6 µM (≈ 0.5 µg/mL). For the same compound, the MIC (C. jejuni; [3]) was 51.2 µM (≈ 16 µg/mL), the MIC (E. coli; [4]) was 102.5 µM (≈ 32 µg/mL) and the MIC (MRSA; [5]) was 76.9 µM (≈ 24 µg/mL).
With `O=C(Nc1ncc([N+](=O)[O-])s1)c1ccc(-c2ccoc2)o1` [VPC16b1142] the MIC (S. epidermidis; [6]) was 13.1 µM (≈ 4 µg/mL), the MIC (H. pylori; [7]) was 1.6 µM (≈ 0.488 µg/mL) and the MIC (C. jejuni; [8]) was 13.1 µM (≈ 4 µg/mL). The MIC (E. coli; [9]) was 104.8 µM (≈ 32 µg/mL) and the MIC (MRSA; [10]) was 26.2 µM (≈ 8 µg/mL).
`O=C(Nc1ncc([N+](=O)[O-])s1)c1ccc(-c2cccs2)o1` [VPC16b1145, N-(5-Nitrothiazol-2-yl)-5-(thiophen-2-yl)furan-2-carboxamide] was tested, and the MIC (S. epidermidis; Staphylococcus epidermidis, planktonic, Furan analogues table, read-out: MIC S. epidermidis Plank) was 12.4 µM (≈ 3.98 µg/mL), the MIC (H. pylori; Helicobacter pylori, Furan analogues table, read-out: MIC H. pylori) was 1.9 µM (≈ 0.611 µg/mL) and the MIC (C. jejuni; Campylobacter jejuni, Furan analogues table, read-out: MIC C. jejuni) was 12.5 µM (≈ 4.02 µg/mL). It also gave an MIC (E. coli; Escherichia coli, planktonic, Furan analogues table, read-out: MIC E. coli Plank) of 99.6 µM (≈ 32 µg/mL) and an MIC (MRSA; Staphylococcus aureus, MRSA, Furan analogues table, read-out: MIC MRSA) of 12.4 µM (≈ 3.98 µg/mL).
`O=C(Nc1ncc([N+](=O)[O-])s1)c1ccc(-c2ccco2)s1` [VPC16b1148] was tested, and the MIC (S. epidermidis; [11]) was 12.4 µM (≈ 3.98 µg/mL), the MIC (H. pylori; [12]) was 7.8 µM (≈ 2.51 µg/mL) and the MIC (C. jejuni; [13]) was 12.4 µM (≈ 3.98 µg/mL). For the same compound, the MIC (E. coli; [14]) was 99.6 µM (≈ 32 µg/mL) and the MIC (MRSA; [15]) was 24.9 µM (≈ 8 µg/mL).
With `O=C(Nc1ncc([N+](=O)[O-])s1)c1ccc(-c2ccsc2)s1` [VPC16b1154] the MIC (S. epidermidis; [11]) was 94.8 µM (≈ 32 µg/mL), the MIC (H. pylori; [12]) was 3.0 µM (≈ 1.01 µg/mL) and the MIC (C. jejuni; [13]) was 94.8 µM (≈ 32 µg/mL). The MIC (E. coli; [14]) was 94.8 µM (≈ 32 µg/mL) and the MIC (MRSA; [15]) was 94.8 µM (≈ 32 µg/mL).
`Cc1cccc(-c2ccc(C(=O)Nc3ncc([N+](=O)[O-])s3)s2)c1` [VPC16b2011] gave an MIC (S. epidermidis; [11]) of 92.6 µM (≈ 32 µg/mL), an MIC (H. pylori; [12]) of 2.2 µM (≈ 0.76 µg/mL) and an MIC (C. jejuni; [13]) of 92.6 µM (≈ 32 µg/mL). For the same compound, the MIC (E. coli; [14]) was 92.6 µM (≈ 32 µg/mL) and the MIC (MRSA; [15]) was 92.6 µM (≈ 32 µg/mL).
In the case of `Cc1cccc(-c2ccc(C(=O)Nc3ncc([N+](=O)[O-])s3)o2)c1` [VPC16b2014], the MIC (S. epidermidis; [6]) is reported as 97.2 µM (≈ 32 µg/mL), the MIC (H. pylori; [7]) is reported as 2.3 µM (≈ 0.757 µg/mL) and the MIC (C. jejuni; [8]) is reported as 97.2 µM (≈ 32 µg/mL). It also gave an MIC (E. coli; [9]) of 97.2 µM (≈ 32 µg/mL) and an MIC (MRSA; [10]) of 97.2 µM (≈ 32 µg/mL).
`Cc1ccc(-c2ccc(C(=O)Nc3ncc([N+](=O)[O-])s3)o2)cc1` [VPC16b2019] was tested, and the MIC (S. epidermidis; [6]) was 97.2 µM (≈ 32 µg/mL), the MIC (H. pylori; [7]) was 1.5 µM (≈ 0.494 µg/mL) and the MIC (C. jejuni; [8]) was 97.2 µM (≈ 32 µg/mL). For the same compound, the MIC (E. coli; [9]) was 97.2 µM (≈ 32 µg/mL) and the MIC (MRSA; [10]) was 97.2 µM (≈ 32 µg/mL).
`O=C(Nc1ncc([N+](=O)[O-])s1)c1ccc(-c2cccs2)s1` [VPC16b2021] was tested, and the MIC (S. epidermidis; [11]) was 94.8 µM (≈ 32 µg/mL), the MIC (H. pylori; [12]) was 3.0 µM (≈ 1.01 µg/mL) and the MIC (C. jejuni; [13]) was 94.8 µM (≈ 32 µg/mL). It also gave an MIC (E. coli; [14]) of 94.8 µM (≈ 32 µg/mL) and an MIC (MRSA; [15]) of 94.8 µM (≈ 32 µg/mL).
In the case of `O=C(Nc1ncc([N+](=O)[O-])s1)c1ccc(-c2ccsc2)o1` [VPC16b2022], the MIC (S. epidermidis; [6]) is reported as 99.6 µM (≈ 32 µg/mL), the MIC (H. pylori; [7]) is reported as 6.2 µM (≈ 1.99 µg/mL) and the MIC (C. jejuni; [8]) is reported as 99.6 µM (≈ 32 µg/mL). The MIC (E. coli; [9]) was 99.6 µM (≈ 32 µg/mL) and the MIC (MRSA; [10]) was 99.6 µM (≈ 32 µg/mL).
With `O=C(Nc1ncc([N+](=O)[O-])s1)c1ccc(-c2ccccc2)o1` [VPC16c1020] the MIC (S. epidermidis; [6]) was 101.5 µM (≈ 32 µg/mL), the MIC (H. pylori; [7]) was 2.4 µM (≈ 0.757 µg/mL) and the MIC (C. jejuni; [8]) was 101.5 µM (≈ 32 µg/mL). For the same compound, the MIC (E. coli; [9]) was 101.5 µM (≈ 32 µg/mL) and the MIC (MRSA; [10]) was 101.5 µM (≈ 32 µg/mL).
With `O=C(Nc1ccccc1)Nc1ncc([N+](=O)[O-])s1` [VPC161223, 1-(5-Nitrothiazol-2-yl)-3-phenylurea] the MIC (S. epidermidis; Staphylococcus epidermidis, 24 h, read-out: MIC (μM) S. epidermidis Plank) was 30.3 µM (≈ 8.01 µg/mL), the MIC (H. pylori; Helicobacter pylori, 24 h, read-out: MIC (μM) H. pylori) was 1.4 µM (≈ 0.37 µg/mL) and the MIC (C. jejuni; Campylobacter jejuni, 24 h, read-out: MIC (μM) C. jejuni) was 30.3 µM (≈ 8.01 µg/mL). It also gave an MIC (E. coli; Escherichia coli, 24 h, read-out: MIC (μM) E. coli Plank) of 121 µM (≈ 32 µg/mL) and an MIC (MRSA; Staphylococcus aureus, MRSA, 24 h, read-out: MIC (μM) MRSA) of 30.3 µM (≈ 8.01 µg/mL).
`O=C(Nc1nccs1)c1sc2cc(F)ccc2c1Cl` [VPC161235] showed an MIC (S. epidermidis; Staphylococcus epidermidis, planktonic, Thiophene analogues table, read-out: MIC S. epidermidis Plank) of 102 µM (≈ 32 µg/mL), an MIC (H. pylori; Helicobacter pylori, Thiophene analogues table, read-out: MIC H. pylori) of 12.8 µM (≈ 4 µg/mL) and an MIC (C. jejuni; Campylobacter jejuni, Thiophene analogues table, read-out: MIC C. jejuni) of 102 µM (≈ 32 µg/mL). The MIC (E. coli; Escherichia coli, planktonic, Thiophene analogues table, read-out: MIC E. coli Plank) was 102 µM (≈ 32 µg/mL) and the MIC (MRSA; Staphylococcus aureus, MRSA, Thiophene analogues table, read-out: MIC MRSA) was 102 µM (≈ 32 µg/mL).
